Measurements taken from the supplement of paper PMC10627819.

Tests used:
Assay in all cases: fitness (endpoint OD595 vs no drug) (fraction); higher = more growth
S. pneumoniae D39V = test system: S. pneumoniae D39V
In short: (§1)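 Plates with 384 wells were inoculated at OD595 0.01 using 30 µl of TSB, LB Lennox or CY, or 55 µl for S. pneumoniae. Incubation was at 37 °C, with OD595 measured every 30 min for 14 h. Fitness is the stationary-phase transition optical density over the robust mean of no-drug control wells, after first-reading background subtraction; it is capped at 1.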

B. subtilis 168 = test system: B. subtilis 168
In short: as §1

S. aureus DSM 20231 = test system: S. aureus DSM 20231
In short: as §1

S. aureus Newman = test system: S. aureus Newman
In short: as §1

CCC[C@@H]1C[C@@H](C(=O)N[C@@H]([C@H]2O[C@H](SC)[C@H](O)[C@@H](O)[C@H]2O)[C@H](C)Cl)N(C)C1 [Clindamycin] + CN(C)[C@@H]1C(O)=C(C(N)=O)C(=O)[C@@]2(O)C(O)=C3C(=O)c4c(O)ccc(Cl)c4[C@@](C)(O)[C@H]3C[C@@H]12 [Chlortetracycline]
Conditions	fitness
B. subtilis 168, first compound 0.0625 µg/mL, partner 0.0475 µg/mL	0.407
B. subtilis 168, first compound 0.0625 µg/mL, partner 0.095 µg/mL	0.362
B. subtilis 168, first compound 0.0625 µg/mL, partner 0.19 µg/mL	0.0596
B. subtilis 168, first compound 0.125 µg/mL, partner 0.0475 µg/mL	0.352
B. subtilis 168, first compound 0.125 µg/mL, partner 0.095 µg/mL	0.0555
B. subtilis 168, first compound 0.125 µg/mL, partner 0.19 µg/mL	0.0594
B. subtilis 168, first compound 0.25 µg/mL, partner 0.0475 µg/mL	0.0818
B. subtilis 168, first compound 0.25 µg/mL, partner 0.095 µg/mL	0.0386
B. subtilis 168, first compound 0.25 µg/mL, partner 0.19 µg/mL	0.0515
S. aureus DSM 20231, first compound 0.0312 µg/mL, partner 0.012 µg/mL	0.0617
S. aureus DSM 20231, first compound 0.0312 µg/mL, partner 0.024 µg/mL	0.038
S. aureus DSM 20231, first compound 0.0312 µg/mL, partner 0.048 µg/mL	0.0237
S. aureus DSM 20231, first compound 0.0625 µg/mL, partner 0.012 µg/mL	0.032
S. aureus DSM 20231, first compound 0.0625 µg/mL, partner 0.024 µg/mL	0.0211
S. aureus DSM 20231, first compound 0.0625 µg/mL, partner 0.048 µg/mL	0.0234
S. aureus DSM 20231, first compound 0.125 µg/mL, partner 0.012 µg/mL	0.0303
S. aureus DSM 20231, first compound 0.125 µg/mL, partner 0.024 µg/mL	0.0207
S. aureus DSM 20231, first compound 0.125 µg/mL, partner 0.048 µg/mL	0.0343
S. pneumoniae D39V, first compound 0.0125 µg/mL, partner 0.012 µg/mL	0.511
S. pneumoniae D39V, first compound 0.0125 µg/mL, partner 0.024 µg/mL	0.383
S. pneumoniae D39V, first compound 0.0125 µg/mL, partner 0.048 µg/mL	0.205
S. pneumoniae D39V, first compound 0.015 µg/mL, partner 0.375 µg/mL	0.0214
S. pneumoniae D39V, first compound 0.015 µg/mL, partner 0.75 µg/mL	0.0514
S. pneumoniae D39V, first compound 0.015 µg/mL, partner 1.5 µg/mL	0.0726
S. pneumoniae D39V, first compound 0.025 µg/mL, partner 0.012 µg/mL	0.334
S. pneumoniae D39V, first compound 0.025 µg/mL, partner 0.024 µg/mL	0.216
S. pneumoniae D39V, first compound 0.025 µg/mL, partner 0.048 µg/mL	0.122
S. pneumoniae D39V, first compound 0.03 µg/mL, partner 0.375 µg/mL	0.0643
S. pneumoniae D39V, first compound 0.03 µg/mL, partner 0.75 µg/mL	0.0687
S. pneumoniae D39V, first compound 0.03 µg/mL, partner 1.5 µg/mL	0.0605
S. pneumoniae D39V, first compound 0.05 µg/mL, partner 0.012 µg/mL	0.128
S. pneumoniae D39V, first compound 0.05 µg/mL, partner 0.024 µg/mL	0.13
S. pneumoniae D39V, first compound 0.05 µg/mL, partner 0.048 µg/mL	0.146
S. pneumoniae D39V, first compound 0.06 µg/mL, partner 0.375 µg/mL	0.0503
S. pneumoniae D39V, first compound 0.06 µg/mL, partner 0.75 µg/mL	0.0714
S. pneumoniae D39V, first compound 0.06 µg/mL, partner 1.5 µg/mL	0.0678

fitness, one replicate
Conditions	first compound 0.0039 µg/mL	first compound 0.0078 µg/mL	first compound 0.0156 µg/mL	first compound 0.0312 µg/mL	first compound 0.0625 µg/mL	first compound 0.125 µg/mL
B. subtilis 168, partner 0.0475 µg/mL	0.996	0.88	0.814	–	–	–
B. subtilis 168, partner 0.095 µg/mL	0.911	0.831	0.721	–	–	–
B. subtilis 168, partner 0.19 µg/mL	0.779	0.697	0.633	–	–	–
S. aureus DSM 20231, partner 0.006 µg/mL	–	–	–	0.198	0.0507	0.029

CCC[C@@H]1C[C@@H](C(=O)N[C@@H]([C@H]2O[C@H](SC)[C@H](O)[C@@H](O)[C@H]2O)[C@H](C)Cl)N(C)C1 [Clindamycin] + CO/N=C(\C(=O)N[C@@H]1C(=O)N2C(C(=O)O)=C(COC(N)=O)CS[C@H]12)c1ccco1 [Cefuroxime]
one replicate
Conditions	fitness
B. subtilis 168, first compound 0.0039 µg/mL, partner 0.195 µg/mL	0.442
B. subtilis 168, first compound 0.0039 µg/mL, partner 0.39 µg/mL	0.397
B. subtilis 168, first compound 0.0039 µg/mL, partner 0.78 µg/mL	0.389
B. subtilis 168, first compound 0.0078 µg/mL, partner 0.195 µg/mL	0.438
B. subtilis 168, first compound 0.0078 µg/mL, partner 0.39 µg/mL	0.367
B. subtilis 168, first compound 0.0078 µg/mL, partner 0.78 µg/mL	0.392
B. subtilis 168, first compound 0.0156 µg/mL, partner 0.195 µg/mL	0.366
B. subtilis 168, first compound 0.0156 µg/mL, partner 0.39 µg/mL	0.326
B. subtilis 168, first compound 0.0156 µg/mL, partner 0.78 µg/mL	0.28
B. subtilis 168, first compound 0.0625 µg/mL, partner 1.562 µg/mL	0.135
B. subtilis 168, first compound 0.0625 µg/mL, partner 3.125 µg/mL	0.0691
B. subtilis 168, first compound 0.0625 µg/mL, partner 6.25 µg/mL	0.0572
B. subtilis 168, first compound 0.125 µg/mL, partner 1.562 µg/mL	0.0526
B. subtilis 168, first compound 0.125 µg/mL, partner 3.125 µg/mL	0.031
B. subtilis 168, first compound 0.125 µg/mL, partner 6.25 µg/mL	0.0267
B. subtilis 168, first compound 0.25 µg/mL, partner 1.562 µg/mL	0.0448
B. subtilis 168, first compound 0.25 µg/mL, partner 3.125 µg/mL	0.028
B. subtilis 168, first compound 0.25 µg/mL, partner 6.25 µg/mL	0.0276
S. aureus Newman, first compound 0.0312 µg/mL, partner 0.04875 µg/mL	0.764
S. aureus Newman, first compound 0.0312 µg/mL, partner 0.0975 µg/mL	0.681
S. aureus Newman, first compound 0.0312 µg/mL, partner 0.195 µg/mL	0.718
S. aureus Newman, first compound 0.0625 µg/mL, partner 0.04875 µg/mL	0.358
S. aureus Newman, first compound 0.0625 µg/mL, partner 0.0975 µg/mL	0.304
S. aureus Newman, first compound 0.0625 µg/mL, partner 0.195 µg/mL	0.21
S. aureus Newman, first compound 0.125 µg/mL, partner 0.04875 µg/mL	0.111
S. aureus Newman, first compound 0.125 µg/mL, partner 0.0975 µg/mL	0.0924
S. aureus Newman, first compound 0.125 µg/mL, partner 0.195 µg/mL	0.078

fitness, B. subtilis 168
Conditions	first compound 0.0625 µg/mL	first compound 0.125 µg/mL	first compound 0.25 µg/mL
partner 0.04875 µg/mL	0.396	0.401	0.218
partner 0.0975 µg/mL	0.306	0.241	0.195
partner 0.195 µg/mL	0.39	0.217	0.217

N[C@@H]1CONC1=O [Cycloserine D] + C/C(=C\C(=O)OCCCCCCCCC(=O)O)C[C@@H]1OC[C@H](C[C@@H]2O[C@H]2[C@@H](C)[C@H](C)O)[C@@H](O)[C@H]1O [Pseudomonic acid]
fitness, S. aureus Newman, one replicate
Conditions	first compound 0.375 µg/mL	first compound 0.75 µg/mL	first compound 1.5 µg/mL
partner 0.0313 µg/mL	0.0489	0.0331	0.0484
partner 0.0625 µg/mL	0.0296	0.0319	0.0149
partner 0.125 µg/mL	0.0371	0.0384	0.031

N[C@@H]1CONC1=O [Cycloserine D] + CC1(C)S[C@@H]2[C@H](NC(=O)Cc3ccccc3)C(=O)N2[C@H]1C(=O)O [Penicillin G]
fitness, S. aureus Newman
Conditions	first compound 0.375 µg/mL	first compound 0.75 µg/mL	first compound 1.5 µg/mL
partner 0.0195 µg/mL	0.966	0.916	0.892
partner 0.039 µg/mL	0.922	0.932	0.957
partner 0.078 µg/mL	0.886	0.923	0.854

N[C@@H]1CONC1=O [Cycloserine D] + CC1=C(C(=O)O)N2C(=O)[C@@H](NC(=O)[C@H](N)c3ccccc3)[C@H]2SC1 [Cephalexin]
fitness
Conditions	first compound 0.125 µg/mL	first compound 0.25 µg/mL	first compound 0.375 µg/mL	first compound 0.5 µg/mL	first compound 0.75 µg/mL	first compound 1.5 µg/mL
B. subtilis 168, partner 0.125 µg/mL	0.865	0.894	–	0.848	–	–
B. subtilis 168, partner 0.25 µg/mL	0.909	0.857	–	0.921	–	–
B. subtilis 168, partner 0.5 µg/mL	0.911	0.88	–	0.867	–	–
S. aureus Newman, partner 0.25 µg/mL	–	–	0.948	–	0.955	0.926
S. aureus Newman, partner 0.5 µg/mL	–	–	0.972	–	≥ 1	0.971
S. aureus Newman, partner 1 µg/mL	–	–	0.992	–	≥ 1	0.995

B. subtilis 168, partner 1 µg/mL, one replicate
Conditions	fitness
first compound 0.125 µg/mL	≥ 1
first compound 0.25 µg/mL	0.91
first compound 0.5 µg/mL	0.985

N[C@@H]1CONC1=O [Cycloserine D] + CC(=O)NC[C@H]1CN(c2ccc(N3CCOCC3)c(F)c2)C(=O)O1 [Linezolid]
fitness, one replicate
Conditions	first compound 0.125 µg/mL	first compound 0.25 µg/mL	first compound 0.375 µg/mL	first compound 0.5 µg/mL	first compound 0.75 µg/mL	first compound 1.5 µg/mL
B. subtilis 168, partner 0.0625 µg/mL	0.943	0.866	–	0.846	–	–
S. aureus DSM 20231, partner 1 µg/mL	–	–	0.0372	–	0.0417	0.0279

fitness
Conditions	first compound 0.125 µg/mL	first compound 0.25 µg/mL	first compound 0.375 µg/mL	first compound 0.5 µg/mL	first compound 0.75 µg/mL	first compound 1.5 µg/mL
B. subtilis 168, partner 0.125 µg/mL	0.566	0.574	–	0.562	–	–
B. subtilis 168, partner 0.25 µg/mL	0.135	0.115	–	0.13	–	–
B. subtilis 168, partner 0.5 µg/mL	0.0466	0.0569	–	0.0486	–	–
S. aureus DSM 20231, partner 0.125 µg/mL	–	–	0.913	–	0.837	0.885
S. aureus DSM 20231, partner 0.25 µg/mL	–	–	0.517	–	0.597	0.537
S. aureus DSM 20231, partner 0.5 µg/mL	–	–	0.162	–	0.168	0.162
